In US20060211697A1, “2-(2 Or 4-substituted aryloxy)-phenol derivatives as antibacterial agents” (priority 2004, published 2006):
In brackets after ≈: the same amount, converted by molar mass. Where two headings read alike, the source gives them in different places. Values belong to the molecule of their own block, whether it stands above or below them.

Assays:
[1] = system: S. aureus 29213; experiment: MIC, broth dilution method, S. aureus; format: cell-based
Procedure: (§1) Minimum Inhibition Concentration (MIC), Broth Dilution Method:
(§2) The compounds of the present invention were tested against an assortment of Gram positive and Gram negative organisms using standard microtitration techniques well known to those skilled in the art. Cultures of bacteria are initially brought up from the freezer by streaking a loopful onto agar plates under the appropriate conditions. For instance bacterial stocks are streaked onto chocolate agar and then incubated for 18 hours at 35-37° C. in a 5% CO2 incubator. Five to ten colonies are picked from the chocolate agar plate for subculture to Brain-Heart infusion (BHI) broth, Mueller Hinton broth, or BHI containing 4% serum and incubated under the appropriate conditions. The ability of the test compound to act as an antimicrobial is determined by the ability to inhibit bacterial growth in vitro. The optical density of the culture of organisms in the presence of an active compound is compared to the optical density of the same organism untreated. The activity of the compounds is described as either negative or the lowest concentration inhibiting growth (Minimum Inhibitory Concentration [MIC]).

[2] = system: S. pneumoniae 11733; experiment: MIC, broth dilution method, S. pneumoniae; format: cell-based
Procedure: as §1, §2

[3] = system: H. influenzae 43095; experiment: MIC, broth dilution method, H. influenzae; format: cell-based
Procedure: as §1, §2

[4] = system: E. coli 43888; experiment: MIC, broth dilution method, E. coli; format: cell-based
Procedure: as §1, §2

[5] = Staphylococcus aureus, 29213, Gram-positive bacteria, in vitro, broth dilution, read-out: MIC S. aureus 29213
[6] = Streptococcus pneumoniae, 11733, Gram-positive bacteria, in vitro, broth dilution, read-out: MIC S. pneumoniae 11733
[7] = Haemophilus influenzae, 43095, Gram-negative bacteria, in vitro, broth dilution, read-out: MIC H. influenzae 43095
[8] = Escherichia coli, 43888, Gram-negative bacteria, in vitro, broth dilution, read-out: MIC E. coli 43888

Structure (SMILES): CCOC(=O)c1cnn(-c2ccc(Oc3ccc(C)cc3O)cc2)c1 [Example 69, 1-[4-(2-Hydroxy-4-methyl-phenoxy)-phenyl]-1H-pyrazole-4-carboxylic acid ethyl ester]
MIC [1, 5]: 0.2 µg/mL (≈ 0.591 µM) | MIC [2, 6]: > 25 µg/mL | MIC [3, 7]: > 25 µg/mL | MIC [4, 8]: 1.6 µg/mL (≈ 4.73 µM)

melting point: 159 to 160 °C
Structure (SMILES): Cc1ccc(Oc2ccc([N+](=O)[O-])cc2-c2ncon2)c(O)c1

Structure (SMILES): Oc1cc(Cl)ccc1Oc1ccccc1-c1ncon1 [Example 57, 5-Chloro-2-(2-[1,2,4]oxadiazol-3-yl-phenoxy)-phenol]
MIC [1, 5]: 0.05 µg/mL (≈ 0.173 µM) | MIC [2, 6]: 6.2 µg/mL (≈ 21.5 µM) | MIC [3, 7]: 0.05 µg/mL (≈ 0.173 µM) | MIC [4, 8]: 0.05 µg/mL (≈ 0.173 µM)

melting point: 153 to 155 °C
Structure (SMILES): COC(=O)c1cn(-c2ccccc2Oc2ccc(C)cc2O)nn1

melting point: 195 to 198 °C
Structure (SMILES): Cc1ccc(Oc2ccc(-c3noc(=O)[nH]3)cc2)c(O)c1

melting point: 118 to 119 °C
Structure (SMILES): CCOC(=O)c1cnn(-c2ccccc2Oc2ccc(C)cc2O)c1

melting point: 85 to 87 °C
Structure (SMILES): Cc1ccc(Oc2ccccc2/C(N)=N/O)c(O)c1

melting point: 134 to 135 °C
Structure (SMILES): COC(=O)C1CSC(c2ccc(Oc3ccc(C)cc3O)cc2)N1 (centres unmarked)

Structure (SMILES): Oc1ccccc1Oc1ccccc1-c1nnn[nH]1 [Example 20, 2-[2-(1H-Tetrazol-5-yl)-phenoxy]-phenol and 2-[2-(2H-tetrazol-5-yl)-phenoxy]-phenol]
MIC [1, 5]: 0.25 µg/mL (≈ 0.983 µM) | MIC [2, 6]: 4 µg/mL (≈ 15.7 µM) | MIC [3, 7]: 4 µg/mL (≈ 15.7 µM) | MIC [4, 8]: 2 µg/mL (≈ 7.87 µM)

melting point: 148 to 151 °C
Structure (SMILES): COC(=O)c1cn(-c2ccc(Oc3ccc(C)cc3O)cc2)nn1

Structure (SMILES): Oc1cc(F)ccc1Oc1ccc(Cl)cc1-c1ncon1 [Example 44, 2-(4-Chloro-2-[1,2,4]oxadiazol-3-yl-phenoxy)-5-fluoro-phenol]
MIC [1, 5]: 0.5 µg/mL (≈ 1.63 µM) | MIC [2, 6]: > 32 µg/mL | MIC [3, 7]: 2 µg/mL (≈ 6.52 µM) | MIC [4, 8]: 2 µg/mL (≈ 6.52 µM)

Structure (SMILES): Cc1ccc(Oc2ccc(-n3cc(C(=O)O)cn3)cc2)c(O)c1 [Example 71, 1-[4-(2-Hydroxy-4-methyl-phenoxy)-phenyl]-1H-pyrazole-4-carboxylic acid]
MIC [1, 5]: 3.1 µg/mL (≈ 9.99 µM) | MIC [2, 6]: 12.5 µg/mL (≈ 40.3 µM) | MIC [3, 7]: 25 µg/mL (≈ 80.6 µM) | MIC [4, 8]: > 25 µg/mL

Structure (SMILES): Cc1ccc(Oc2ccc([N+](=O)[O-])cc2-c2noc(C(=O)O)n2)c(O)c1 [Example 39, 3-[2-(2-Hydroxy-4-methyl-phenoxy)-5-nitro-phenyl]-[1,2,4]oxadiazole-5-carboxylic acid]
MIC [1, 5]: 0.5 µg/mL (≈ 1.4 µM) | MIC [2, 6]: > 32 µg/mL | MIC [3, 7]: 8 µg/mL (≈ 22.4 µM) | MIC [4, 8]: 4 µg/mL (≈ 11.2 µM)

Structure (SMILES): Oc1cc(F)ccc1Oc1ccccc1-c1ncon1 [Example 42, 5-Fluoro-2-(2-[1,2,4]oxadiazol-3-yl-phenoxy)-phenol]
MIC [1, 5]: 1 µg/mL (≈ 3.67 µM) | MIC [2, 6]: > 32 µg/mL | MIC [3, 7]: 1 µg/mL (≈ 3.67 µM) | MIC [4, 8]: 1 µg/mL (≈ 3.67 µM)

Structure (SMILES): Oc1cc(F)ccc1Oc1ccc(Cl)cc1-c1nnn[nH]1 [Example 18, 2-[4-Chloro-2-(1H-tetrazol-5-yl)-phenoxy]-5-fluoro-phenol and 2-[4-chloro-2-(2H-tetrazol-5-yl)-phenoxy]-5-fluoro-phenol]
MIC [1, 5]: 0.125 µg/mL (≈ 0.408 µM) | MIC [2, 6]: 0.25 µg/mL (≈ 0.815 µM) | MIC [3, 7]: 4 µg/mL (≈ 13 µM) | MIC [4, 8]: 7.9 µg/mL (≈ 25.8 µM)

Structure (SMILES): Oc1cc(Cl)ccc1Oc1ccc(Cl)cc1-c1nnn[nH]1 [Example 19, 5-chloro-2-[4-Chloro-2-(1H-tetrazol-5-yl)-phenoxy]-phenol and 5-chloro-2-[4-chloro-2-(2H-tetrazol-5-yl)-phenoxy]-phenol]
MIC [1, 5]: 0.125 µg/mL (≈ 0.387 µM) | MIC [2, 6]: 2 µg/mL (≈ 6.19 µM) | MIC [3, 7]: 2 µg/mL (≈ 6.19 µM) | MIC [4, 8]: 4 µg/mL (≈ 12.4 µM)

Structure (SMILES): Cc1ccc(Oc2ccccc2-c2noc(C(=O)O)n2)c(O)c1 [Example 37, 3-[2-(2-Hydroxy-4-methyl-phenoxy)-phenyl]-[1,2,4]oxadiazole-5-carboxylic acid]
MIC [1, 5]: 0.125 µg/mL (≈ 0.4 µM) | MIC [2, 6]: 8 µg/mL (≈ 25.6 µM) | MIC [3, 7]: 0.5 µg/mL (≈ 1.6 µM) | MIC [4, 8]: 0.5 µg/mL (≈ 1.6 µM)

melting point: 127 to 128 °C
Structure (SMILES): O=C(O)c1nc(-c2ccccc2Oc2ccc(F)cc2O)no1

Structure (SMILES): Cc1ccc(Oc2ccc(-c3ccco3)cc2O)c(O)c1 [Example 4, 2-(2-Hydroxy-4-methyl-phenoxy)-5-(furan-2-yl)-phenol]
MIC [1, 5]: 2 µg/mL (≈ 7.08 µM) | MIC [2, 6]: 1 µg/mL (≈ 3.54 µM) | MIC [3, 7]: 7.9 µg/mL (≈ 28 µM) | MIC [4, 8]: 0.5 µg/mL (≈ 1.77 µM)

Structure (SMILES): CCOC(=O)c1nc(-c2ccccc2Oc2ccc(Cl)cc2O)no1 [Example 51, 3-[2-(4-Chloro-2-hydroxy-phenoxy)-phenyl]-[1,2,4]oxadiazole-5-carboxylic acid ethyl ester]
MIC [1, 5]: 0.4 µg/mL (≈ 1.11 µM) | MIC [2, 6]: > 25 µg/mL | MIC [3, 7]: 3.1 µg/mL (≈ 8.59 µM) | MIC [4, 8]: 6.2 µg/mL (≈ 17.2 µM)

Structure (SMILES): Cc1ccc(Oc2ccc(-c3nnc(N)o3)cc2)c(O)c1 [Example 24, 2-[4-(5-Amino-[1,3,4]oxadiazol-2-yl)-phenoxy]-5-methyl-phenol]
MIC [1, 5]: 0.8 µg/mL (≈ 2.82 µM) | MIC [2, 6]: 12.5 µg/mL (≈ 44.1 µM) | MIC [3, 7]: 12.5 µg/mL (≈ 44.1 µM) | MIC [4, 8]: 6.2 µg/mL (≈ 21.9 µM)

melting point: 213 to 214 °C
Structure (SMILES): Cc1ccc(Oc2ccccc2-c2noc(=O)[nH]2)c(O)c1

Structure (SMILES): Cc1ccc(Oc2ccc(/C(N)=N/O)cc2)c(O)c1 [Example 30, N-Hydroxy-4-(2-hydroxy-4-methyl-phenoxy)-benzamidine]
MIC [1, 5]: 4 µg/mL (≈ 15.5 µM) | MIC [2, 6]: 62.5 µg/mL (≈ 242 µM) | MIC [3, 7]: 31.3 µg/mL (≈ 121 µM) | MIC [4, 8]: 0.5 µg/mL (≈ 1.94 µM)

Structure (SMILES): Cc1ccc(Oc2ccc(-c3ncon3)cc2)c(O)c1 [Example 45, 5-Methyl-2-(4-[1,2,4]oxadiazol-3-yl-phenoxy)-phenol]
MIC [1, 5]: 0.5 µg/mL (≈ 1.86 µM) | MIC [2, 6]: 1 µg/mL (≈ 3.73 µM) | MIC [3, 7]: 4 µg/mL (≈ 14.9 µM) | MIC [4, 8]: 1 µg/mL (≈ 3.73 µM)

Structure (SMILES): Cc1ccc(Oc2ccc(-c3noc(C(=O)O)n3)cc2)c(O)c1 [Example 40, 3-[4-(2-Hydroxy-4-methyl-phenoxy)-phenyl]-[1,2,4]oxadiazole-5-carboxylic acid]
MIC [1, 5]: 4 µg/mL (≈ 12.8 µM) | MIC [2, 6]: 16 µg/mL (≈ 51.2 µM) | MIC [3, 7]: 4 µg/mL (≈ 12.8 µM) | MIC [4, 8]: 8 µg/mL (≈ 25.6 µM)

Structure (SMILES): Cc1ccc(Oc2ccc(NN)cc2)c(O)c1 [Example 67, 2-(4-Hydrazino-phenoxy)-5-methyl-phenol]
MIC [1, 5]: 0.1 µg/mL (≈ 0.434 µM) | MIC [2, 6]: 6.2 µg/mL (≈ 26.9 µM) | MIC [3, 7]: 0.1 µg/mL (≈ 0.434 µM) | MIC [4, 8]: 0.4 µg/mL (≈ 1.74 µM)

melting point: 143 to 145 °C
Structure (SMILES): Cc1ccc(Oc2ccc(-c3ccsc3)cc2O)c(O)c1

Structure (SMILES): O=C(O)c1nc(-c2ccccc2Oc2ccc(Cl)cc2O)no1 [Example 54, 3-[2-(4-Chloro-2-hydroxy-phenoxy)-phenyl]-[1,2,4]oxadiazole-5-carboxylic acid]
MIC [1, 5]: 0.05 µg/mL (≈ 0.15 µM) | MIC [2, 6]: 3.1 µg/mL (≈ 9.32 µM) | MIC [3, 7]: 0.2 µg/mL (≈ 0.601 µM) | MIC [4, 8]: 0.2 µg/mL (≈ 0.601 µM)

Structure (SMILES): Cc1ccc(Oc2ccccc2-c2ncon2)c(O)c1 [Example 43, 5-Methyl-2-(2-[1,2,4]oxadiazol-3-yl-phenoxy)-phenol]
MIC [1, 5]: 0.5 µg/mL (≈ 1.86 µM) | MIC [2, 6]: 15.7 µg/mL (≈ 58.5 µM) | MIC [3, 7]: 4 µg/mL (≈ 14.9 µM) | MIC [4, 8]: 0.5 µg/mL (≈ 1.86 µM)

melting point: 95 to 96 °C
Structure (SMILES): Cc1ccc(Oc2ccc(-n3cccc3)cc2)c(O)c1

Structure (SMILES): Oc1cc(F)ccc1Oc1ccc(-c2ccco2)cc1O [Example 12, 5-(Furan-2-yl)-2-(4-fluoro-2-hydroxy-phenoxy)-phenol]
MIC [1, 5]: 4 µg/mL (≈ 14 µM) | MIC [2, 6]: 0.5 µg/mL (≈ 1.75 µM) | MIC [3, 7]: 7.9 µg/mL (≈ 27.6 µM) | MIC [4, 8]: 2 µg/mL (≈ 6.99 µM)

melting point: 64 to 65 °C
Structure (SMILES): N/C(=N\O)c1ccccc1Oc1ccc(F)cc1O

Structure (SMILES): Cc1ccc(Oc2ccccc2NN)c(O)c1 [Example 66, 2-(2-Hydrazino-phenoxy)-5-methyl-phenol]
MIC ([1]; Staphylococcus aureus, 29213, read-out: MIC S. aureus 29213): 0.1 µg/mL (≈ 0.434 µM) | MIC ([2]; Streptococcus pneumoniae, 11733, read-out: MIC S. pneumoniae 11733): 3.1 µg/mL (≈ 13.5 µM) | MIC ([3]; Haemophilus influenzae, 43095, read-out: MIC H. influenzae 43095): 0.1 µg/mL (≈ 0.434 µM) | MIC ([4]; Escherichia coli, 43888, read-out: MIC E. coli 43888): 0.8 µg/mL (≈ 3.47 µM)

Structure (SMILES): Cc1ccc(Oc2ccc([N+](=O)[O-])cc2-c2nnn[nH]2)c(O)c1 [Example 16, 5-Methyl-2-[4-nitro-2-(1H-tetrazol-5-yl)-phenoxy]-phenol and 5-methyl-2-[4-nitro-2-(2H-tetrazol-5-yl)-phenoxy]-phenol]
MIC [1, 5]: 2 µg/mL (≈ 6.38 µM) | MIC [2, 6]: 7.9 µg/mL (≈ 25.2 µM) | MIC [3, 7]: 31.3 µg/mL (≈ 99.9 µM) | MIC [4, 8]: 31.3 µg/mL (≈ 99.9 µM)

melting point: 82 to 83 °C
Structure (SMILES): CCOC(=O)c1nc(-c2ccccc2Oc2ccc(F)cc2O)no1
